According to patent US9724336B2, “Pharmaceutical composition for preventing or treating hyperlipidemia” (priority 2011, dated 2017):

Columns and labels:
[1] = system: hypertriglyceridemia and hypercholesterolemia-induced animals; assay: HDL cholesterol concentrations in blood of hypertriglyceridemia and hypercholesterolemia-induced animals (Example 2); assay type: in vivo, New Zealand White rabbits; details: 4 weeks oral once per day, Compound of Formula 1 20 mg/kg/day and/or olmesartan medoxomil 3 mg/kg/day; for average HDL cholesterol concentrations, 4 weeks: n=4-7; for Percent increase of HDL cholesterol level (%): in comparison with the G2 group
Text: (§1) Male New Zealand White rabbits were used as a test animal. All animals, except for the G1 group animals (negative control group), were fed with an irradiation-sterilized hypertriglyceridemia and hypercholesterolemia diet, i.e., DYET #621082 (Purina #5321 chow with 0.5% cholesterol, 14% coconut oil & 2% Maltose Dextrin, Dyets, Inc., Bethlehem, Pa. 18017), which was purchased from Saeronbio Inc. In order to induce hypertriglyceridemia and hypercholesterolemia, the animals were supplied with the diet for more than 4 weeks. After collecting the blood samples from the animals, serum biochemical analyses were performed thereon. Animals showing significant changes in total cholesterol levels and triglyceride levels were selected, in comparison with the non-treated control group. The selected animals were divided into 4 groups on the basis of the total cholesterol levels and triglyceride levels, thereby all the groups having substantially equal average values in the total cholesterol levels and triglyceride levels. The test materials were dissolved in saline containing 0.5% carboxymethylcellulose sodium and 1% Tween 80 and then administered directly into the stomach using an oral syringe adapted with a latex catheter, once per day for 4 weeks. The test groups are as in the following Table 3.
The blood samples were collected through the jugular vein, from the animals at the day initiating the administration of the test material(s) (i.e., at the time of group-dividing, 0 week), and from the animals (which were fasted for 12 to 16 hours before collecting the blood) at 4 weeks after initiating the administration of the test material(s) (n=4-7).

[2] = system: hypertriglyceridemia and hypercholesterolemia-induced animals; assay: Triglyceride concentrations in hypertriglyceridemia and hypercholesterolemia-induced animals (Example 2); assay type: in vivo, New Zealand White rabbits; details: 4 weeks oral once per day, Compound of Formula 1 20 mg/kg/day and/or olmesartan medoxomil 3 mg/kg/day
Text: as §1, with “3. […]” for “3.”

SMILES	average HDL cholesterol concentrations, 4 weeks [1] [mg/dL]	Percent increase of HDL cholesterol level (%) [1] [%]	average triglyceride concentrations, 4 weeks ([2]; 0.5% cholesterol, 14% coconut oil diet, n=4-7) [mg/dL]	Percent inhibition of triglyceride in the blood (%) ([2]; in comparison with the G2 group)
COc1cc(F)c(C(C)C)cc1-c1ccc(C(F)(F)F)cc1CN1C(=O)O[C@H](c2cc(C(F)(F)F)cc(C(F)(F)F)c2)[C@@H]1C [Compound of Formula 1, (4S,5R)-5-[3,5-bis(trifluoromethyl)phenyl]-3-({2-[4-fluoro-2-methoxy-5-(propan-2-yl)phenyl]-5-(trifluoromethyl)phenyl}methyl)-4-methyl-1,3-oxazolidin-2-one]	168.5	37.9	–	–
CCCc1nc(C(C)(C)O)c(C(=O)OCc2oc(=O)oc2C)n1Cc1ccc(-c2ccccc2-c2nnn[nH]2)cc1 [Olmesartan medoxomil]	125.3	2.6	217.4	33.4
